# Measured values: ChEMBL document CHEMBL5325456, “5-(4-Hydroxyphenyl)-3H-1,2-dithiole-3-thione derivatives of brefeldin A: Design, synthesis and cytotoxicity in MDA-MB-231 human breast cancer cells” (Bioorg Med Chem, 2023)
# pIC50: −log10 of the molar value. Activity calls are given as the source filed them. The rule behind the calls is not given here.
# What was measured:
# DU-145 = experiment: Antiproliferative activity against human DU-145 cells assessed as reduction in cell viability incubated for 48 hrs by CCk-8 assay; format: functional, cell-based; conditions: DU-145, 48 h
# A-375 = experiment: Antiproliferative activity against human A-375 cells assessed as reduction in cell viability incubated for 48 hrs by CCk-8 assay; format: functional, cell-based; conditions: A-375, 48 h
# HeLa = experiment: Antiproliferative activity against human HeLa cells assessed as reduction in cell viability incubated for 48 hrs by CCk-8 assay; format: functional, cell-based
# MDA-MB-231 [1] = experiment: Antiproliferative activity against human MDA-MB-231 cells assessed as reduction in cell viability incubated for 48 hrs by CCk-8 assay; format: functional, cell-based; conditions: MDA-MB-231, 48 h
# [2] = Antiproliferative activity against human L02 cells assessed as reduction in cell viability incubated for 48 hrs by CCk-8 assay; format: toxicity, cell-based
# [3] = Selectivity index, ratio of IC50 for antiproliferative activity against human L02 cells to IC50 for antiproliferative activity against human MDA-MB-231 cells; format: toxicity, cell-based; conditions: L02 cells and MDA-MB-231 cells, read-out: Ratio IC50
# MDA-MB-231 [4] = experiment: Induction of cell cycle arrest in human MDA-MB-231 cells assessed as accumulation of cells at G1 phase at 82.5 nM incubated for 48 hrs by flow cytometry analysis (reference value: 47.44 %); format: functional
# MDA-MB-231 [5] = experiment: Induction of cell cycle arrest in human MDA-MB-231 cells assessed as accumulation of cells at S phase at 82.5 nM incubated for 48 hrs by flow cytometry analysis (reference value: 36.51%); format: functional
# MDA-MB-231 [6] = experiment: Induction of cell cycle arrest in human MDA-MB-231 cells assessed as accumulation of cells at G2 phase at 82.5 nM incubated for 48 hrs by flow cytometry analysis (reference value: 16.05 %); format: functional
# MDA-MB-231 [7] = experiment: Induction of cell cycle arrest in human MDA-MB-231 cells assessed as accumulation of cells at G1 phase at 0.165 uM incubated for 48 hrs by flow cytometry analysis (reference value: 47.44 %); format: functional
# MDA-MB-231 [8] = experiment: Induction of cell cycle arrest in human MDA-MB-231 cells assessed as accumulation of cells at S phase at 0.165 uM incubated for 48 hrs by flow cytometry analysis (reference value: 36.51%); format: functional
# MDA-MB-231 [9] = experiment: Induction of cell cycle arrest in human MDA-MB-231 cells assessed as accumulation of cells at G2 phase at 0.165 uM incubated for 48 hrs by flow cytometry analysis (reference value: 16.05 %); format: functional
# MDA-MB-231 [10] = experiment: Induction of cell cycle arrest in human MDA-MB-231 cells assessed as accumulation of cells at G1 phase at 0.33 uM incubated for 48 hrs by flow cytometry analysis (reference value: 47.44 %); format: functional
# MDA-MB-231 [11] = experiment: Induction of cell cycle arrest in human MDA-MB-231 cells assessed as accumulation of cells at S phase at 0.33 uM incubated for 48 hrs by flow cytometry analysis (reference value: 36.51%); format: functional
# MDA-MB-231 [12] = experiment: Induction of cell cycle arrest in human MDA-MB-231 cells assessed as accumulation of cells at G2 phase at 0.33 uM incubated for 48 hrs by flow cytometry analysis (reference value: 16.05 %); format: functional
# MDA-MB-231 [13] = experiment: Induction of apoptosis in human MDA-MB-231 cells assessed as viable cells at 82.5 nM incubated for 48 hrs by Annexin-V/FITC-PI staining based flow cytometry analysis (reference value: 93.74 %); format: functional; conditions: read-out: Activity
# MDA-MB-231 [14] = experiment: Induction of apoptosis in human MDA-MB-231 cells assessed as early apoptotic cells at 82.5 nM incubated for 48 hrs by Annexin-V/FITC-PI staining based flow cytometry analysis (reference value: 2.93 %); format: functional
# MDA-MB-231 [15] = experiment: Induction of apoptosis in human MDA-MB-231 cells assessed as necrotic cells at 82.5 nM incubated for 48 hrs by Annexin-V/FITC-PI staining based flow cytometry analysis (reference value: 0.99 %); format: functional
# MDA-MB-231 [16] = experiment: Induction of apoptosis in human MDA-MB-231 cells assessed as viable cells at 0.165 uM incubated for 48 hrs by Annexin-V/FITC-PI staining based flow cytometry analysis (reference value: 93.74 %); format: functional; conditions: read-out: Activity
# MDA-MB-231 [17] = experiment: Induction of apoptosis in human MDA-MB-231 cells assessed as early apoptotic cells at 0.165 uM incubated for 48 hrs by Annexin-V/FITC-PI staining based flow cytometry analysis (reference value: 2.93 %); format: functional
# MDA-MB-231 [18] = experiment: Induction of apoptosis in human MDA-MB-231 cells assessed as late apoptotic cells at 0.165 uM incubated for 48 hrs by Annexin-V/FITC-PI staining based flow cytometry analysis (reference value: 2.34 %); format: functional
# MDA-MB-231 [19] = experiment: Induction of apoptosis in human MDA-MB-231 cells assessed as late apoptotic cells at 0.33 uM incubated for 48 hrs by Annexin-V/FITC-PI staining based flow cytometry analysis (reference value: 2.34 %); format: functional
# Cell membrane = experiment: Induction of mitochondrial membrane potential loss in human MDA-MB-231 cells assessed as proportion of MMP decreased cells at 82.5 nM and measured for 48 hrs by JC-1 staining based flow cytometry assay (reference value: 4.40%); format: subcellular; set-up: scale not given: the % may be the effect or the level left
# MDA-MB-231 [20] = experiment: Induction of DNA damage in human MDA-MB-231 cells assessed as tail DNA at 0.165 uM incubated for 48 hrs by Comet assay (reference value: 0.007 %); format: functional
# MDA-MB-231 [21] = experiment: Induction of DNA damage in human MDA-MB-231 cells assessed as tail DNA at 0.33 uM incubated for 48 hrs by Comet assay (reference value: 0.007 %); format: functional
# MDA-MB-231 [22] = experiment: Inhibition of cell adhesion in human MDA-MB-231 cells assessed as reduction in cell adhesion by measuring fluorescence intensity at 82.5 to 330 nM incubated for 48 hrs by flow cytometry analysis; format: functional, cell-based; conditions: dose 82.5-330 nM
# MDA-MB-231 [23] = experiment: Inhibition of cell migration in human MDA-MB-231 cells assessed as wound healing rate at 82.5 nM measured immediately by scratch wound healing assay (Rvb= 871.53 +/- 3.02 %); format: functional; set-up: scale not given: the % may be the effect or the level left
# MDA-MB-231 [24] = experiment: Inhibition of cell migration in human MDA-MB-231 cells assessed as wound healing rate at 0.165 uM measured immediately by scratch wound healing assay (Rvb= 871.53 +/- 3.02 %); format: functional; set-up: scale not given: the % may be the effect or the level left
# MDA-MB-231 [25] = experiment: Inhibition of cell migration in human MDA-MB-231 cells assessed as wound healing rate at 0.33 uM measured immediately by scratch wound healing assay (Rvb= 871.53 +/- 3.02 %); format: functional; set-up: scale not given: the % may be the effect or the level left
# MDA-MB-231 [26] = experiment: Inhibition of cell migration in human MDA-MB-231 cells assessed as wound healing rate at 82.5 nM measured for 24 hrs by scratch wound healing assay (Rvb= 230.22 +/- 32.21 %); format: functional; set-up: scale not given: the % may be the effect or the level left
# MDA-MB-231 [27] = experiment: Inhibition of cell migration in human MDA-MB-231 cells assessed as wound healing rate at 0.165 uM measured for 24 hrs by scratch wound healing assay (Rvb= 230.22 +/- 32.21 %); format: functional; set-up: scale not given: the % may be the effect or the level left
# MDA-MB-231 [28] = experiment: Inhibition of cell migration in human MDA-MB-231 cells assessed as wound healing rate at 0.33 uM measured for 24 hrs by scratch wound healing assay (Rvb= 230.22 +/- 32.21 %); format: functional; set-up: scale not given: the % may be the effect or the level left
smiles,measurement,setting,value
C[C@H]1CCC/C=C/[C@@H]2C[C@H](O)C[C@H]2[C@H](OC(=O)CCCC(=O)OCCOc2ccc(-c3cc(=S)ss3)cc2)/C=C/C(=O)O1,pIC50,DU-145,6.16
same,pIC50,A-375,5.74
same,pIC50,HeLa,6.07
same,pIC50,MDA-MB-231 [1],6.48
same,IC50 at 48 h,[2],1750 nM
same,selectivity ratio,[3],5.3
same,Activity,MDA-MB-231 [4],56.27%
same,Activity,MDA-MB-231 [5],30.23%
same,Activity,MDA-MB-231 [6],13.5%
same,Activity,MDA-MB-231 [7],60.09%
same,Activity,MDA-MB-231 [8],30.39%
same,Activity,MDA-MB-231 [9],9.52%
same,Activity,MDA-MB-231 [10],69.88%
same,Activity,MDA-MB-231 [11],22.99%
same,Activity,MDA-MB-231 [12],7.13%
same,viability at 0.0825 µM,MDA-MB-231 [13],82%
same,Activity,MDA-MB-231 [14],10.01%
same,Activity,MDA-MB-231 [15],2.12%
same,viability at 0.165 µM,MDA-MB-231 [16],71.7%
same,Activity,MDA-MB-231 [17],10.14%
same,Activity,MDA-MB-231 [18],16.31%
same,Activity,MDA-MB-231 [19],31.61%
same,Activity,Cell membrane,16.3%
same,Activity,MDA-MB-231 [20],39.11%
same,Activity,MDA-MB-231 [21],49.49%
same,inhibition,MDA-MB-231 [22],Active
same,Activity,MDA-MB-231 [23],832.33%
same,Activity,MDA-MB-231 [24],830.55%
same,Activity,MDA-MB-231 [25],844.92%
same,Activity,MDA-MB-231 [26],383.42%
same,Activity,MDA-MB-231 [27],465.92%
same,Activity,MDA-MB-231 [28],610.67%
